Assay results reported in US12077503B2, “Substituted cyclic amides and their use as herbicides” (FMC CORPORATION, priority 2015, dated 2024).

Legend:
Assay type in all cases: in vivo
[1] = test system: pigweed (Amaranthus retroflexus); assay: Test A preemergence; conditions: for Plant response rating, Pigweed: 125 g ai/ha
From the text: (§1) Seeds of plant species selected from barnyardgrass (Echinochloa crus-galli), Kochia (Kochia scoparia), ragweed (common ragweed, Ambrosia elatior), ryegrass, Italian (Italian ryegrass, Lolium multiflorum), crabgrass, large (Digitaria sanguinalis), giant foxtail (Setaria faberii), green foxtail (Setaria viridis), morningglory (Ipomoea spp.), pigweed (Amaranthus retroflexus), velvetleaf (Abutilon theophrasti), wheat (Triticum aestivum), and corn (Zea mays) were planted into a blend of loam soil and sand and treated preemergence with a directed soil spray using test chemicals formulated in anon-phytotoxic solvent mixture which included a surfactant.
(§2) At the same time, plants selected from these crop and weed species and also blackgrass (Alopecurus myosuroides), and Galium (catchweed bedstraw, Galium aparine) were planted in pots containing the same blend of loam soil and sand and treated with postemergence applications of test chemicals formulated in the same manner. Plants ranged in height from 2 to 10 cm and were in the one- to two-leaf stage for the postemergence treatment. Treated plants and untreated controls were maintained in a greenhouse for approximately 10 d, after which time all treated plants were compared to untreated controls and visually evaluated for injury. Plant response ratings, summarized in Table A, are based on a 0 to 100 scale where 0 is no effect and 100 is complete control. A dash (-) response means no test result.

[2] = test system: giant foxtail (Setaria faberii); assay: Test A preemergence; conditions: for Plant response rating, Foxtail, Giant: 125 g ai/ha
From the text: as §1, §2

[3] = test system: ryegrass, Italian (Italian ryegrass, Lolium multiflorum); assay: Test A preemergence; conditions: for Plant response rating, Ryegrass, Italian: 125 g ai/ha
From the text: as §1, §2

[4] = test system: barnyardgrass (Echinochloa crus-galli); assay: Test A preemergence; conditions: for Plant response rating, Barnyardgrass: 125 g ai/ha
From the text: as §1, §2

[5] = test system: ragweed (common ragweed, Ambrosia elatior); assay: Test A preemergence; conditions: for Plant response rating, Ragweed: 125 g ai/ha
From the text: as §1, §2

[6] = test system: Kochia (Kochia scoparia); assay: Test A preemergence; conditions: for Plant response rating, Kochia: 125 g ai/ha
From the text: as §1, §2

[7] = test system: barnyardgrass (Echinochloa crus-galli); assay: Test B flooded paddy test; conditions: Flood, 250 g ai/ha; 0 to 100 scale where 0 is no effect and 100 is complete control; 13 to 15 d
Procedure: (§3) Plant species in the flooded paddy test selected from rice (Oryra sativa), sedge, umbrella (small-flower umbrella sedge, Cyperus difformis), ducksalad (Heteranthera limosa), and barnyardgrass (Echinochloa crus-galli) were grown to the 2-leaf stage for testing. At time of treatment, test pots were flooded to 3 cm above the soil surface, treated by application of test compounds directly to the paddy water, and then maintained at that water depth for the duration of the test. Treated plants and controls were maintained in a greenhouse for 13 to 15 d, after which time all species were compared to controls and visually evaluated. Plant response ratings, summarized in Table B, are based on a scale of 0 to 100 where 0 is no effect and 100 is complete control. A dash (-) response means no test result.

[8] = test system: sedge, umbrella (small-flower umbrella sedge, Cyperus difformis); assay: Test B flooded paddy test; conditions: Flood, 250 g ai/ha; 0 to 100 scale where 0 is no effect and 100 is complete control; 13 to 15 d
Procedure: as §3

[9] = test system: ducksalad (Heteranthera limosa); assay: Test B flooded paddy test; conditions: Flood, 250 g ai/ha; 0 to 100 scale where 0 is no effect and 100 is complete control; 13 to 15 d
Procedure: as §3

[10] = test system: rice (Oryra sativa); assay: Test B flooded paddy test; conditions: Flood, 250 g ai/ha; 0 to 100 scale where 0 is no effect and 100 is complete control; 13 to 15 d
Procedure: as §3

[11] = test system: pigweed (Amaranthus retroflexus); assay: Test A postemergence
From the text: as §1, §2

[12] = test system: giant foxtail (Setaria faberii); assay: Test A postemergence
From the text: as §1, §2

[13] = test system: ryegrass, Italian (Italian ryegrass, Lolium multiflorum); assay: Test A postemergence
From the text: as §1, §2

[14] = test system: wheat (Triticum aestivum); assay: Test A postemergence
From the text: as §1, §2

[15] = test system: corn (Zea mays); assay: Test A postemergence
From the text: as §1, §2

[16] = test system: barnyardgrass (Echinochloa crus-galli); assay: Test A postemergence
From the text: as §1, §2

[17] = test system: ragweed (common ragweed, Ambrosia elatior); assay: Test A postemergence
From the text: as §1, §2

[18] = test system: Galium (catchweed bedstraw, Galium aparine); assay: Test A postemergence
From the text: as §1, §2

[19] = test system: blackgrass (Alopecurus myosuroides); assay: Test A postemergence
From the text: as §1, §2

[20] = test system: Kochia (Kochia scoparia); assay: Test A postemergence
From the text: as §1, §2

[21] = preemergence, 0 to 100 scale (0 no effect, 100 complete control)
[22] = Preemergence, 500 g ai/ha, 0 is no effect, 100 is complete control
[23] = 500 g ai/ha, postemergence, 0 to 100 scale, 0 no effect, 100 complete control
[24] = Postemergence, 125 g ai/ha, visual injury, 0 to 100 scale (0 no effect, 100 complete control), approx. 10 d
[25] = Preemergence, visual injury after approximately 10 d, 0 to 100 scale where 0 is no effect and 100 is complete control
[26] = Preemergence, 500 g ai/ha, visual injury approx. 10 d
[27] = 125 g ai/ha, postemergence, visual injury rating on 0 to 100 scale (0 no effect, 100 complete control), approx. 10 d
[28] = Postemergence, 500 g ai/ha, 0 to 100 scale where 0 is no effect and 100 is complete control

O=C1NCC(c2ccccc2-c2ccccc2)C1C(=O)Nc1cccc(F)c1F (racemic) [Compound 379]
0: Plant response rating, Pigweed [1, 21] | Pigweed plant response rating (0 to 100 scale) [1, 22] | Plant response rating, Foxtail, Giant [2, 21] | Plant response rating, Ryegrass, Italian [3, 21] | Ryegrass, Italian plant response rating (0 to 100 scale) [3, 22] | Plant response rating, Barnyardgrass [4, 21] | Plant response rating, Ragweed [5, 21] | Ragweed plant response rating (0 to 100 scale) [5, 22] | Plant response rating, Kochia [6, 21] | Kochia plant response rating (0 to 100 scale) [6, 22] | Plant response rating, Barnyardgrass [7] | Plant response rating, Sedge, Umbrella [8] | Plant response rating, Ducksalad [9] | Plant response rating, Rice [10] | Plant response rating, Pigweed [11, 23] | Plant response rating, Pigweed [11, 24] | Plant response rating, Foxtail, Giant [12, 24] | Plant response rating, Ryegrass, Italian [13, 23] | Plant response rating, Ryegrass, Italian [13, 24] | Plant response rating, Wheat [14, 23] | Plant response rating, Wheat [14, 24] | Plant response rating, Corn [15, 23] | Plant response rating, Corn [15, 24] | Plant response rating, Barnyardgrass [16, 24] | Plant response rating, Ragweed [17, 23] | Plant response rating, Ragweed [17, 24] | Plant response rating, Galium [18, 23] | Plant response rating, Galium [18, 24] | Plant response rating, Blackgrass [19, 23] | Plant response rating, Blackgrass [19, 24] | Plant response rating, Kochia [20, 23] | Plant response rating, Kochia [20, 24]
20: Plant response rating, Foxtail, Giant [12, 23]
40: Foxtail, Giant plant response rating (0 to 100 scale) [2, 22]
50: Plant response rating, Barnyardgrass [16, 23]
30: Barnyardgrass plant response rating (0 to 100 scale) [4, 22]

CS(=O)(=O)c1ccccc1NC(=O)C1C(=O)NCC1c1ccc(C2CC2)cc1 (racemic) [Compound 502]
50: Ragweed plant response rating (0 to 100 scale, 0 is no effect, 100 is complete control) [5, 26] | Plant response rating, Foxtail, Giant [12, 28] | Plant response rating, Galium [18, 28]
30: Pigweed plant response rating (0 to 100 scale, 0 is no effect, 100 is complete control) [1, 26] | Ryegrass, Italian plant response rating (0 to 100 scale, 0 is no effect, 100 is complete control) [3, 26] | Plant response rating, Ryegrass, Italian [13, 28] | Plant response rating, Corn [15, 28]
70: Kochia plant response rating (0 to 100 scale, 0 is no effect, 100 is complete control) [6, 26] | Plant response rating, Ducksalad [9]
20: Foxtail, Giant plant response rating [12, 27] | Galium plant response rating [18, 27] | Plant response rating, Blackgrass [19, 28] | Plant response rating, Kochia [20, 28]
90: Foxtail, Giant plant response rating (0 to 100 scale, 0 is no effect, 100 is complete control) [2, 26]
0: Plant response rating, Pigweed [1, 25] | Plant response rating, Ryegrass, Italian [3, 25] | Plant response rating, Barnyardgrass [4, 25] | Plant response rating, Ragweed [5, 25] | Plant response rating, Kochia [6, 25] | Plant response rating, Barnyardgrass [7] | Plant response rating, Sedge, Umbrella [8] | Plant response rating, Rice [10] | Pigweed plant response rating [11, 27] | Plant response rating, Pigweed [11, 28] | Ryegrass, Italian plant response rating [13, 27] | Wheat plant response rating [14, 27] | Plant response rating, Wheat [14, 28] | Corn plant response rating [15, 27] | Barnyardgrass plant response rating [16, 27] | Ragweed plant response rating [17, 27] | Plant response rating, Ragweed [17, 28] | Blackgrass plant response rating [19, 27] | Kochia plant response rating [20, 27]
60: Barnyardgrass plant response rating (0 to 100 scale, 0 is no effect, 100 is complete control) [4, 26] | Plant response rating, Barnyardgrass [16, 28]
80: Plant response rating, Foxtail, Giant [2, 25]
